Laboratory results from US9458198B1, “Cyclic peptide-based NPR-B agonists” (priority 2009, dated 2016).
Where a SMILES comes first, the peptide text is derived from it. Bridges are numbered along the chain shown (N, C = ends). [ ]: non-standard residue; d: D form. The star is where a group is joined. Hexanoyl = CCCCCC(=O)*

molecular target: T1, NPR-B (Homo sapiens, UniProt P20594); test: NPR-B induced production of cyclic GMP in GTM-3 cells; type: cell-based; conditions: Activity (group): NPR-B activation, EC50 and Emax (CNP = 100%)
T1 construct: a functional assay using endogenously NPR-B expressing GTM-3 cells; endogenous in cells; host or cells: GTM-3 (transformed human trabecular meshwork cells)
T1 sequence (P20594 23-1047): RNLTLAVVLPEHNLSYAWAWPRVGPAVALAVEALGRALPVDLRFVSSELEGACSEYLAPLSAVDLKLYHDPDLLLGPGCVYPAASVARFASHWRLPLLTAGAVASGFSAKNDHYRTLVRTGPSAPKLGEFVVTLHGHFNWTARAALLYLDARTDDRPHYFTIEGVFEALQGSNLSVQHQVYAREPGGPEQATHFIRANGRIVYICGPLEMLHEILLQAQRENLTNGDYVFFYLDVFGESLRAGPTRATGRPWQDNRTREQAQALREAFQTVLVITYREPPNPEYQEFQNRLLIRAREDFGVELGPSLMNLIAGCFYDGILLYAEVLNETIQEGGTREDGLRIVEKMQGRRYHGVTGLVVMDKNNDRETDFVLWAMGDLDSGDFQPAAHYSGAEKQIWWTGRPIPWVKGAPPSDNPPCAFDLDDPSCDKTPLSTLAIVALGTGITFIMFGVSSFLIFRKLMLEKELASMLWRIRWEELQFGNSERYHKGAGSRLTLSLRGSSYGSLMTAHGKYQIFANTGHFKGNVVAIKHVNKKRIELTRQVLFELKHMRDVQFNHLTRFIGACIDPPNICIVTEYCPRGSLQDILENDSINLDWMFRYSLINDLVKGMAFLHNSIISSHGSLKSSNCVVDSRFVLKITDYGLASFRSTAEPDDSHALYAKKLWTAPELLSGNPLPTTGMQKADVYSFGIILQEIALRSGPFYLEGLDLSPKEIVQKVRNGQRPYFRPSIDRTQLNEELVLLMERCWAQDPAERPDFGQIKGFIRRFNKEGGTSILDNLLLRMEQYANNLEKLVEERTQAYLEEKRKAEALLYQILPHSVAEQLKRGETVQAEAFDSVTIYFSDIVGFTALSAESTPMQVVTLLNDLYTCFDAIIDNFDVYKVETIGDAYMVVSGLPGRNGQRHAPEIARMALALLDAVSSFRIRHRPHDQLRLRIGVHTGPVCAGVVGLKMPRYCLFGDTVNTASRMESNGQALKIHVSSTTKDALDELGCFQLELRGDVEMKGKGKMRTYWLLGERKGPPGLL
Method in brief: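 GTM-3 cells with endogenous NPR-B were washed and preincubated 15 min at room temperature in medium with 1 mM IBMX. Compounds were tested at final 45 μM to 20 nM; dose-dependent cGMP production gave Emax and EC50.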

| Compound | EC50 |
| --- | --- |
| CC[C@H](C)[C@@H]1NC(=O)[C@H](CCCNC(=N)N)NC(=O)[C@H](CC(=O)O)NC(=O)[C@H](CC(C)C)NC(=O)[C@H](CCCCN)NC(=O)[C@H](CC(C)C)NC(=O)CNC(=O)[C@H](Cc2ccccc2)NC(=O)[C@@H](C)NC(=O)[C@@H](NC(=O)CCCC(C)C)CSSC[C@@H](C(N)=O)NC(=O)[C@H](CO)NC1=O [compound 67] | < 1000 nM |
| CCCCCCCC(=O)N[C@H]1CSSC[C@@H](C(N)=O)NC(=O)[C@H](CO)NC(=O)[C@H]([C@@H](C)CC)NC(=O)[C@H](CCCNC(=N)N)NC(=O)[C@H](CC(=O)O)NC(=O)[C@H](CC(C)C)NC(=O)[C@H](CCCCN)NC(=O)[C@H](CC(C)C)NC(=O)CNC(=O)[C@H](Cc2ccccc2)NC(=O)[C@@H](C)NC1=O [compound 68] | < 1000 nM |
| CC[C@H](C)[C@@H]1NC(=O)[C@H](CCCNC(=N)N)NC(=O)[C@H](CC(=O)O)NC(=O)[C@H](CC(C)C)NC(=O)[C@H](CCCCN)NC(=O)[C@H](CC(C)C)NC(=O)CNC(=O)[C@H](Cc2ccccc2)NC(=O)[C@@H](C)NC(=O)[C@@H](NC(=O)CCc2ccccc2)CSSC[C@@H](C(N)=O)NC(=O)[C@H](CO)NC1=O [compound 70] | < 1000 nM |
| CC[C@H](C)[C@@H]1NC(=O)[C@H](CCCNC(=N)N)NC(=O)[C@H](CC(=O)O)NC(=O)[C@H](CC(C)C)NC(=O)[C@H](CCCCN)NC(=O)[C@H](CC(C)C)NC(=O)CNC(=O)[C@H](Cc2ccccc2)NC(=O)[C@@H](C)NC(=O)[C@@H](NC(=O)CCCc2ccccc2)CSSC[C@@H](C(N)=O)NC(=O)[C@H](CO)NC1=O [compound 72] | < 1000 nM |
| CCCCCC(=O)N[C@H]1CSSC[C@@H](C(N)=O)NC(=O)[C@H](CO)NC(=O)[C@H]([C@@H](C)CC)NC(=O)[C@H](CCCNC(=N)N)NC(=O)[C@H](CC(=O)O)NC(=O)[C@H]([C@@H](C)CC)NC(=O)[C@H](CCCCN)NC(=O)[C@H](CC(C)C)NC(=O)CNC(=O)[C@H](Cc2ccccc2)NC(=O)[C@H]2CCCN2C1=O [compound 92] (Hexanoyl-C[dP]FGLKIDRISC-NH2; disulfide 1-12) | < 1000 nM |

same assay, conditions: Activity (group): NPR-B activation, EC50 and Emax (CNP = 100%), GTM-3 cells; group needs both EC50 and Emax criteria, checked A then B then C

| Compound | EC50 |
| --- | --- |
| CC[C@H](C)[C@@H]1NC(=O)[C@H](CCCNC(=N)N)NC(=O)[C@H](CC(=O)O)NC(=O)[C@H](CC(C)C)NC(=O)[C@H](CCCCN)NC(=O)[C@H](CC(C)C)NC(=O)CNC(=O)[C@H](Cc2ccccc2)NC(=O)[C@@H](C)NC(=O)[C@@H](NC(=O)Cc2ccccc2)CSSC[C@@H](C(N)=O)NC(=O)[C@H](CO)NC1=O [compound 69] | < 5000 nM |
| CC[C@H](C)[C@@H]1NC(=O)[C@H](CCCNC(=N)N)NC(=O)[C@H](CC(=O)O)NC(=O)[C@H](CC(C)C)NC(=O)[C@H](CCCCN)NC(=O)[C@H](CC(C)C)NC(=O)CNC(=O)[C@H](Cc2ccccc2)NC(=O)[C@@H](C)NC(=O)[C@@H](N)CSSC[C@@H](C(N)=O)NC(=O)[C@H](CO)NC1=O [compound 73] | < 15000 nM |
| CCCCCC(=O)N[C@H]1CSSC[C@@H](C(N)=O)NC(=O)[C@H](CO)NC(=O)[C@H]([C@@H](C)CC)NC(=O)[C@H](CCCNC(=N)N)NC(=O)[C@H](CC(=O)O)NC(=O)[C@H]([C@@H](C)CC)NC(=O)[C@@H]2CCCN2C(=O)[C@H](CC(C)C)NC(=O)CNC(=O)[C@H](Cc2ccccc2)NC(=O)[C@@H](C)NC1=O [compound 88] (Hexanoyl-C[dA]FGLPIDRISC-NH2; disulfide 1-12) | < 1000 nM |
| CCCCCC(=O)N[C@H]1CSSC[C@@H](C(N)=O)NC(=O)[C@H](CO)NC(=O)[C@H]([C@@H](C)CC)NC(=O)[C@H](CCCNC(=N)N)NC(=O)[C@H](CC(=O)O)NC(=O)[C@H]([C@@H](C)CC)NC(=O)[C@@H]2CCCN2C(=O)[C@H](CC(C)C)NC(=O)CNC(=O)[C@H](Cc2ccccc2)NC(=O)[C@H]2CCCN2C1=O [compound 89] (Hexanoyl-C[dP]FGLPIDRISC-NH2; disulfide 1-12) | < 1000 nM |
| CCCCCC(=O)N[C@H]1CSSC[C@@H](C(N)=O)NC(=O)[C@H](CO)NC(=O)[C@H]([C@@H](C)CC)NC(=O)[C@H](CCCNC(=N)N)NC(=O)[C@H](CC(=O)O)NC(=O)[C@H](CC(C)C)NC(=O)[C@@H]2CCCN2C(=O)[C@H](CC(C)C)NC(=O)CNC(=O)[C@H](Cc2ccccc2)NC(=O)[C@H]2CCCN2C1=O [compound 91] (Hexanoyl-C[dP]FGLPLDRISC-NH2; disulfide 1-12) | < 1000 nM |
| CCCCCC(=O)N[C@H]1CSSC[C@@H](C(N)=O)NC(=O)[C@H](CO)NC(=O)[C@H]([C@@H](C)CC)NC(=O)[C@H](CCCNC(=N)N)NC(=O)[C@H](CC(=O)O)NC(=O)[C@H](CC(C)C)NC(=O)[C@@H]2CCCN2C(=O)[C@H](CC(C)C)NC(=O)CNC(=O)[C@H](Cc2ccccc2)NC(=O)[C@@H](C)NC1=O [compound 93] | < 1000 nM |

same assay, conditions: GTM-3 cells; group needs both EC50 and Emax criteria, checked A then B then C; read-out: Activity (group): NPR-B activation, EC50 and Emax (CNP = 100%)

| Compound | EC50 |
| --- | --- |
| CCCCS(=O)(=O)N[C@H]1CSSC[C@@H](C(N)=O)NC(=O)[C@H](CO)NC(=O)[C@H]([C@@H](C)CC)NC(=O)[C@H](CCCNC(=N)N)NC(=O)[C@H](CC(=O)O)NC(=O)[C@H](CC(C)C)NC(=O)[C@H](CCCCN)NC(=O)[C@H](CC(C)C)NC(=O)CNC(=O)[C@H](Cc2ccccc2)NC(=O)[C@@H](C)NC1=O [compound 71] | < 5000 nM |
| CCCCCC(=O)N[C@H]1CSSC[C@@H](C(N)=O)NC(=O)[C@H](CO)NC(=O)[C@H]([C@@H](C)CC)NC(=O)[C@H](CCCNC(=N)N)NC(=O)[C@H](CC(=O)O)NC(=O)[C@H]([C@@H](C)CC)NC(=O)[C@H](CCCCN)NC(=O)[C@H](CC(C)C)NC(=O)CNC(=O)[C@H](Cc2ccccc2)NC(=O)[C@@H](C)NC1=O [compound 87] (Hexanoyl-C[dA]FGLKIDRISC-NH2; disulfide 1-12) | < 1000 nM |
| CCCCCC(=O)N[C@H]1CSSC[C@@H](C(N)=O)NC(=O)[C@H](CO)NC(=O)[C@H]([C@@H](C)CC)NC(=O)[C@H](CCCNC(=N)N)NC(=O)[C@H](CC(=O)O)NC(=O)[C@H](CC(C)C)NC(=O)[C@H](CCCCN)NC(=O)[C@H](CC(C)C)NC(=O)CNC(=O)[C@H](Cc2ccccc2)NC(=O)[C@H]2CCCN2C1=O [compound 90] | < 1000 nM |
| CCCCCC(=O)N[C@H]1CSSC[C@@H](C(N)=O)NC(=O)[C@H](CO)NC(=O)[C@H]([C@@H](C)CC)NC(=O)[C@H](CCCNC(=N)N)NC(=O)[C@H](CC(=O)O)NC(=O)[C@H](CC(C)C)NC(=O)[C@H](CCCCN)NC(=O)[C@H]([C@@H](C)O)NC(=O)CNC(=O)[C@H](Cc2ccccc2)NC(=O)[C@@H](C)NC1=O [compound 100] (Hexanoyl-C[dA]FGTKLDRISC-NH2; disulfide 1-12) | < 5000 nM |
| CCCCCC(=O)N[C@H]1CSSC[C@@H](C(N)=O)NC(=O)[C@H](CO)NC(=O)[C@H]([C@@H](C)CC)NC(=O)[C@H](CCCNC(=N)N)NC(=O)[C@H](CC(=O)O)NC(=O)[C@H](CC(C)C)NC(=O)[C@H](CCCCN)NC(=O)[C@H](C)NC(=O)CNC(=O)[C@H](Cc2ccccc2)NC(=O)[C@@H](C)NC1=O [compound 101] (Hexanoyl-C[dA]FGAKLDRISC-NH2; disulfide 1-12) | < 5000 nM |
| CCCCCC(=O)N[C@H]1CSSC[C@@H](C(N)=O)NC(=O)[C@H](CO)NC(=O)[C@H]([C@@H](C)CC)NC(=O)[C@H](CCCNC(=N)N)NC(=O)[C@H](CC(=O)O)NC(=O)[C@H](CC(C)C)NC(=O)[C@H](CCCCN)NC(=O)CNC(=O)CNC(=O)[C@H](Cc2ccccc2)NC(=O)[C@@H](C)NC1=O [compound 102] (Hexanoyl-C[dA]FGGKLDRISC-NH2; disulfide 1-12) | < 5000 nM |
| CCCCCC(=O)N[C@H]1CSSC[C@@H](C(N)=O)NC(=O)[C@H](CO)NC(=O)[C@H]([C@@H](C)CC)NC(=O)[C@H](CCCNC(=N)N)NC(=O)[C@H](CC(=O)O)NC(=O)[C@H](CC(C)C)NC(=O)[C@H](CCCCN)NC(=O)[C@H](CC(C)C)NC(=O)CNC(=O)[C@H](Cc2cccc(C(F)(F)F)c2)NC(=O)[C@@H](C)NC1=O [compound 105] | < 15000 nM |
| CCCCCC(=O)N[C@H]1CSSC[C@@H](C(N)=O)NC(=O)[C@H](CO)NC(=O)[C@H]([C@@H](C)CC)NC(=O)[C@H](Cc2ccc(C(=N)N)cc2)NC(=O)[C@H](CC(=O)O)NC(=O)[C@H](CC(C)C)NC(=O)[C@H](CCCCN)NC(=O)[C@H](CC(C)C)NC(=O)CNC(=O)[C@H](Cc2ccccc2)NC(=O)[C@@H](C)NC1=O [compound 112] | < 15000 nM |
| CCCCCC(=O)N[C@H]1CSSC[C@@H](C(N)=O)NC(=O)[C@H](CO)NC(=O)[C@H]([C@@H](C)CC)NC(=O)[C@H](CCNC(=N)N)NC(=O)[C@H](CC(=O)O)NC(=O)[C@H](CC(C)C)NC(=O)[C@H](CCCCN)NC(=O)[C@H](CC(C)C)NC(=O)CNC(=O)[C@H](Cc2ccccc2)NC(=O)[C@@H](C)NC1=O [compound 114] | < 15000 nM |
